Test results taken from article PMC3419191, “Identification of Novel Piperazinylquinoxaline Derivatives as Potent Phosphoinositide 3-Kinase (PI3K) Inhibitors” (PLoS ONE, 2012).

Key:
HL60 = assay: MTT assay, antiproliferative activity against HL60 cells; assay type: cell-based; details: Homo sapiens, HL-60, 72 h, mean of at least two determinations
Source text: (§1) All synthesized target compounds were firstly tested for their antiproliferative activity against five human cancer cell lines, PC3, A549, HCT116, HL60, and KB, using MTT assay.
(§2) Human prostate cancer PC3 cells, lung adenocarcinoma epithelial A549 cells, colon cancer HCT116 cells, promyelocytic leukemia HL60 cells and nasopharyngeal carcinoma KB cells were obtained from the cell bank of the Institute of Biochemistry and Cell Biology, Chinese Academy of Sciences (Shanghai, China). The inhibitory activity of target compounds against tested cancer cell lines was measured using the MTT assay. PC3, A549, HCT116, HL60, and KB cancer cell lines were cultured in RPMI-1640 medium (Invitrogen, Carlsbad, CA, USA) with heat-inactivated 10% fetal bovine serum, penicillin (100 units/mL) and streptomycin (100 µg/mL) and incubated in an atmosphere with 20% oxygen and 5% carbon dioxide at 37°C. All tested compounds were dissolved in DMSO at concentrations of 10.0 mg/mL and diluted to appropriate concentrations. Cells were plated in 96-well plates for 24 h and subsequently treated with different concentrations of all tested compounds for 72 h. Viable cells were determined using 3-(4,5-dimethylthiazol-2-yl)-2,5-diphenyltetrazolium bromide assay kit (MTT, Sigma) according to operation instructions provided by the manufacturer. The concentration of drug causing 50% inhibition in absorbance compared with control cells (IC50) was calculated using the software of dose-effect analysis with microcomputers.

A549 = assay: MTT assay, antiproliferative activity against A549 cells; assay type: cell-based; details: Homo sapiens, 72 h, mean of at least two determinations
Source text: as §1, §2

recombinant human PI3Kα = target: T1, recombinant human PI3Kα (Homo sapiens, UniProt P42336); assay: Competitive fluorescence polarization (FP) assay, inhibition of PI3Kα; assay type: biochemical; details: for Binding efficiency index (BEI): BEI = pIC50 (M)/MW (kDa), PI3Kα
T1 construct: purchased Echelon Biosciences (Salt Lake City, UT, USA) E-2000
T1 sequence (P42336 whole entry): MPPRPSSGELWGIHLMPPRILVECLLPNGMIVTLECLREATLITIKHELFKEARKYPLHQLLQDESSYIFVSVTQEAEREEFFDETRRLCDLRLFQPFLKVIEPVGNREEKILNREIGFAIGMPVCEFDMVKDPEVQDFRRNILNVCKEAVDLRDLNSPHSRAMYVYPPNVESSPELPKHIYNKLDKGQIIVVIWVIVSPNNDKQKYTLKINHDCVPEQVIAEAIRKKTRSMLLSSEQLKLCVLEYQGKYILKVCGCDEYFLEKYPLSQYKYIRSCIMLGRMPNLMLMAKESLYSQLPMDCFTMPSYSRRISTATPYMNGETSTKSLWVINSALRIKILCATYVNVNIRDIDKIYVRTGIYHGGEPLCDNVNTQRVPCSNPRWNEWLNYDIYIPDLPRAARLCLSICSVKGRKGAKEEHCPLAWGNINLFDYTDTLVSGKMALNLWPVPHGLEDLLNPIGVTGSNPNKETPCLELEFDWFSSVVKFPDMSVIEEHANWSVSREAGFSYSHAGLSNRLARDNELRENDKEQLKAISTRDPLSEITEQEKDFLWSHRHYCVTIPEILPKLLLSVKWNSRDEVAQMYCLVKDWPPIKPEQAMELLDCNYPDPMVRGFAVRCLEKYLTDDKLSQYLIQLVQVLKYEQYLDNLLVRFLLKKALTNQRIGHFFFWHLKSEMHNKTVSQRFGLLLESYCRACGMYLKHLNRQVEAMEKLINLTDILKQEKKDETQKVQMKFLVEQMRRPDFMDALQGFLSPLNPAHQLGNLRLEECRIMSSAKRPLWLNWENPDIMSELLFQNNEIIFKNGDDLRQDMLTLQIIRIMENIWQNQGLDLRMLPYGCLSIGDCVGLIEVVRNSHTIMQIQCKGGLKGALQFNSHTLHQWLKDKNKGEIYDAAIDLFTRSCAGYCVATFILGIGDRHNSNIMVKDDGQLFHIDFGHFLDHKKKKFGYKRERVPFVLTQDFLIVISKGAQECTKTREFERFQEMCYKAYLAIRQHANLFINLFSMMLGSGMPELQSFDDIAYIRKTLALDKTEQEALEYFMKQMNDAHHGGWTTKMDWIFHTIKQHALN
T1 sequence (P27986 whole entry partner): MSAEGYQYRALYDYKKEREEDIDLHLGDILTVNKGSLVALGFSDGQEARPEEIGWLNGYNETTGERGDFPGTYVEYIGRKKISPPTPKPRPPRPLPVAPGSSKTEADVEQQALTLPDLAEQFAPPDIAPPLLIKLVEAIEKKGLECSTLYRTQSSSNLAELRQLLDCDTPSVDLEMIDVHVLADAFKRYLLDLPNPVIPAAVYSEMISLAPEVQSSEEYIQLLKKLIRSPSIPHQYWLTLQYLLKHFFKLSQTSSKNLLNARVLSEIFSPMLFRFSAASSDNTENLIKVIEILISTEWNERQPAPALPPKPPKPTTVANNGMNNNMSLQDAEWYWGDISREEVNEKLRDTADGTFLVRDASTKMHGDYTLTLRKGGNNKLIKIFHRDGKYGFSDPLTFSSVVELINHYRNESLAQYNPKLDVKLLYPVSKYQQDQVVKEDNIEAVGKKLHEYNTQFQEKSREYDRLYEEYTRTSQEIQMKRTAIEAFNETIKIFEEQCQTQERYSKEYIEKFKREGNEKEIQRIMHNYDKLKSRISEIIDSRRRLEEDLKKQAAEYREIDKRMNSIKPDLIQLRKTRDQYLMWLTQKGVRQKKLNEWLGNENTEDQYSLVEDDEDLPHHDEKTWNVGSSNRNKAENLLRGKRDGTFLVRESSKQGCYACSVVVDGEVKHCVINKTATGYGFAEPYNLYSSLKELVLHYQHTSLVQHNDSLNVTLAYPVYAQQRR
Method: Selected compounds were then tested for their enzymatic inhibitory activity against PI3Kα using a competitive fluorescence polarization (FP) assay to determine the molecular target of synthesized compounds [21].
The PI3Kα inhibitory test was determined using a competitive fluorescence polarization kinase activity assay. PI3K fluorescence polarization assay kit (catalog No. K-1100) and recombinant human PI3Kα (catalog No. E-2000) were purchased from Echelon Biosciences (Salt Lake City, UT, USA). PI3K reactions were performed in 5 mM HEPES, Ph 7, 2.5 mM MgCl2, 10 mM DTT and 50 µM ATP, using diC8-phosphatidylinositol-4, 5-bisphosphate (PIP2) as the substrate, and the final reaction volumes were 10 µL. For evaluation of the PI3Kα inhibitory activity of target compounds, 50 ng enzyme and 10 µM substate were used per 10 µL reaction volume with the concentrations of inhibitors ranging from 3.2 nM to 10 µM. After incubating for 3 h at room temperature, reactions were quenched by adding chelators. A mixture of phosphoinositide binding protein was added and mixed, followed by the addition of a fluorophore-labeled phosphoinositide tracer. Samples were then mixed in 384-well black Corning nonbinding plates (Corning, NY, USA) and incubated in a dark environment for 1 h to equilibrate. Finally, polarization values were measure using red fluorophores with appropriate filters to determine the extent of enzyme activity in the reaction.

HCT116 = assay: MTT assay, antiproliferative activity against HCT116 cells; assay type: cell-based; details: Homo sapiens, HCT-116, 72 h, mean of at least two determinations
Source text: as §1, §2

KB = assay: MTT assay, antiproliferative activity against KB cells; assay type: cell-based; details: Homo sapiens, 72 h, mean of at least two determinations
Source text: as §1, §2

PC3 = assay: MTT assay, antiproliferative activity against PC3 cells; assay type: cell-based; details: Homo sapiens, PC-3, 72 h, mean of at least two determinations
Source text: as §1, §2

[1] = FP assay, 50 µM ATP, mean of at least two determinations

melting point [°C]	IC50 (HL60) [nM]	IC50 (A549) [nM]	IC50 (recombinant human PI3Kα; [1]) [nM]	IC50 (HCT116) [nM]	IC50 (KB) [µM]	IC50 (PC3) [nM]	Binding efficiency index (BEI) (recombinant human PI3Kα)	IC50 (recombinant human PI3Kα; as used for BEI, Table 5) [nM]	SMILES
161 to 163	6400	24300	> 10000	7490	3.08	2190			Cc1ccc(S(=O)(=O)N2CCN(c3nc4ccccc4nc3S(=O)(=O)c3ccccc3)CC2)cc1 [Compound 44, 2-(4-(4-Methylphenylsulfonyl)piperazin-1-yl)-3-(phenylsulfonyl)quinoxaline]
206 to 207		1260	1010	330		3300	13.3		CS(=O)(=O)N1CCN(c2nc3ccccc3nc2S(=O)(=O)c2ccc(F)cc2)CC1 [Compound 43, 2-(4-(Methylsulfonyl)piperazin-1-yl)-3-(4-fluorophenylsulfonyl)quinoxaline]
	4470	12600		5350		18900	17.9		O=S(=O)(c1ccccc1)c1nc2ccccc2nc1N1CCOCC1 [WR1, reference compound]
182 to 185		2370	1340	1210		1070	13.6		CS(=O)(=O)N1CCN(c2nc3ccccc3nc2S(=O)(=O)c2ccccc2)CC1 [Compound 39, 2-(4-(Methylsulfonyl)piperazin-1-yl)-3-(phenylsulfonyl)quinoxaline]
							17.0		O=S(=O)(c1ccc(Br)cc1)c1nc2ccccc2nc1N1CCC(O)CC1 [WR23, reference compound]
		730	180	650		5120	14.0		O=S(=O)(c1ccccc1)c1nc2ccccc2nc1N1CCN(CCCN2CCOCC2)CC1 [Compound 49, 2-(4-(3-Morpholinopropyl)piperazin-1-yl)-3-(phenylsulfonyl)quinoxaline]
		340	200	220		1190	11.9		O=S(=O)(c1ccc(Br)cc1)c1nc2ccccc2nc1N1CCN(CCCN2CCOCC2)CC1 [Compound 52, 2-(4-(3-Morpholinopropyl)piperazin-1-yl)-3-(4-bromophenylsulfonyl)quinoxaline]
130 to 133	160	1650	240	540	8.53	930	16.6	240	COc1ccc(S(=O)(=O)c2nc3ccccc3nc2N2CCNC(C)C2)cc1 (stereo not drawn) [Compound 26, 2-(3-Methylpiperazin-1-yl)-3-(4-methoxyphenylsulfonyl)quinoxaline]
136 to 138	90	1600	650	1170	9.18	2030	16.2		Cc1ccc(S(=O)(=O)c2nc3ccccc3nc2N2CCNC(C)C2)cc1 (stereo not drawn) [Compound 25, 2-(3-Methylpiperazin-1-yl)-3-(4-methylphenylsulfonyl)quinoxaline]
141 to 142	280	5180	4250	2310	0.87	1010	12.0		CN1CCN(c2nc3ccccc3nc2S(=O)(=O)c2ccc(Br)cc2)CC1 [Compound 17, 2-(4-Methylpiperazin-1-yl)-3-(4-bromophenylsulfonyl)quinoxaline]
	150	1360	59	680	8.73	1440	19.7		CC1CN(c2nc3ccccc3nc2S(=O)(=O)c2ccccc2)CCN1 (stereo not drawn) [Compound 24, 2-(3-Methylpiperazin-1-yl)-3-(phenylsulfonyl)quinoxaline]
92 to 96	100	750	40	190	9.89	360	17.0		O=S(=O)(c1ccc(Br)cc1)c1nc2ccccc2nc1N1CCNCC1 [Compound 22, 2-(Piperazin-1-yl)-3-(4-bromophenylsulfonyl)quinoxaline]
170 to 174	220	26600	> 10000	1570	13.7	1200			NC(=O)C1CCN(c2nc3ccccc3nc2S(=O)(=O)c2ccccc2)CC1 [Compound 4, 2-(4-Carbamoylpiperidin-1-yl)-3-(phenylsulfonyl)Fquinoxaline]
		1930	460	1070		5350			Cc1ccc(S(=O)(=O)c2nc3ccccc3nc2N2CCN(S(C)(=O)=O)CC2)cc1 [Compound 40, 2-(4-(Methylsulfonyl)piperazin-1-yl)-3-(4-methylphenylsulfonyl)quinoxaline]
108 to 112	1780	7120		4340	6.15	3170			CC(=O)N1CCN(c2nc3ccccc3nc2S(=O)(=O)c2ccc(F)cc2)CC1 [Compound 13, 2-(4-Acetylpiperazin-1-yl)-3-(4-fluorophenylsulfonyl)quinoxaline]
200 to 203	140	27400		1200	11.8	2280			Cc1ccc(S(=O)(=O)c2nc3ccccc3nc2N2CCC(C(N)=O)CC2)cc1 [Compound 5, 2-(4-Carbamoylpiperidin-1-yl)-3-(4-methylphenylfsulfonyl)quinoxaline]
147 to 148	2750	7950		8210	21.6	3090			CN1CCN(c2nc3ccccc3nc2S(=O)(=O)c2ccc(F)cc2)CC1 [Compound 18, 2-(4-Methylpiperazin-1-yl)-3-(4-fluorophenylsulfonyl)quinoxaline]
194 to 196		1320	440	410		1950	12.4		CS(=O)(=O)N1CCN(c2nc3ccccc3nc2S(=O)(=O)c2ccc(Br)cc2)CC1 [Compound 42, 2-(4-(Methylsulfonyl)piperazin-1-yl)-3-(4-bromophenylsulfonyl)quinoxaline]
198 to 202	4150	10200		7130	6.45	4360			NC(=O)C1CCN(c2nc3ccccc3nc2S(=O)(=O)c2ccc(F)cc2)CC1 [Compound 8, 2-(4-Carbamoylpiperidin-1-yl)-3-(4-fluorophenylsulfonyl)quinoxaline]
119 to 123	1950	3450		2200	2.03	2340			CC1CN(c2nc3ccccc3nc2S(=O)(=O)c2ccc(F)cc2)CCN1 (stereo not drawn) [Compound 28, 2-(3-Methylpiperazin-1-yl)-3-(4-fluorophenylsulfonyl)quinoxaline]
	110	12800	190	990	8.27	900	19.0		O=S(=O)(c1ccccc1)c1nc2ccccc2nc1N1CCNCC1 [Compound 19, 2-(Piperazin-1-yl)-3-(phenylsulfonyl)quinoxaline]
